This assay concerns MX-1 breast xenograft, nude mice, tumor weight T/C. Nature of the assay: NCI In Vivo Anticancer Drug Screen. Data for tumor model Human Mammary Carcinoma MX-1 Xenograft (intrarenal inoculation) in NU/NU Swiss (nude) mice. The following applies: endpoint: mean tumor weight change, higher = larger tumour. The gist of the method:
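Read-out: treated (T) over vehicle control (C) ratio of survival or tumor size. Dosing in animals carrying the transplanted tumor.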

Setting [1] is: dose: 25.0 mg/kg/injection, schedule: Q01DX010 (sc), vehicle: saline.
Setting [2] is: dose: 150.0 mg/kg/injection, schedule: Q04DX003 (sc), vehicle: saline with Tween-80.
Where [3] appears, read: dose: 300.0 mg/kg/injection, schedule: Q04DX003 (sc), vehicle: saline with Tween-80.
Setting [4] is: dose: 50.0 mg/kg/injection, schedule: Q01DX010 (sc), vehicle: saline.

Values joined by “and” are separate entries in the source; they are usually repeats but may differ in a detail not shown here. Equal entries are not always repeated. Inconclusive results are not listed. *1 amine or outer side, *2 acyl side, *3 side chain or, on linkers, in order; H or OH if unused. Where a SMILES comes first, the peptide text is derived from it. Bridges are numbered along the chain shown (N, C = ends). Roman numbers before positions name the chains, in order. [ ]: non-standard residue; d: D form. Actinocin(9to1) = Cc1c2oc3c(C)ccc(C(=O)[*:1])c3nc-2c(C(=O)[*:2])c(N)c1=O; aThr = C[C@H](O)[C@H](N)C(=O)O; NMeV = CN[C@H](C(=O)O)C(C)C; Sar = CNCC(=O)O

On to `Nc1nc(/C=C(/O)c2ccccc2)c2ncn(C3OC(CO)C(O)C3O)c2n1` (configuration not stated), for which the T/C is, setting by setting: (dose: 200.0 mg/kg/injection, schedule: Q04DX003 (sc), vehicle: distilled water + Tween-80) 97 % of control; (dose: 400.0 mg/kg/injection, schedule: Q04DX003 (sc), vehicle: distilled water + Tween-80) 100 % of control; (dose: 800.0 mg/kg/injection, schedule: Q04DX003 (sc), vehicle: distilled water + Tween-80) 92 % of control; (dose: 1600.0 mg/kg/injection, schedule: Q04DX003 (sc), vehicle: distilled water + Tween-80) 99 % of control.
For the compound `O=Cc1ccc(C(Cl)(Cl)Cl)cc1`, the T/C by setting is: (dose: 100.0 mg/kg/injection, schedule: Q01DX010 (sc), vehicle: saline with Tween-80) 182 % of control; (dose: 400.0 mg/kg/injection, schedule: Q01DX010 (sc), vehicle: saline with Tween-80) 120 % of control; (dose: 800.0 mg/kg/injection, schedule: Q01DX010 (sc), vehicle: saline with Tween-80) 46 % of control.
For the compound `O=C(O)C(CSC(c1ccccc1)(c1ccccc1)c1ccccc1)N=Cc1cccs1` (configuration not stated), the T/C (dose: 800.0 mg/kg/injection, schedule: Q04DX003 (sc), vehicle: suspension in saline) was 67 % of control.
With `N=C(N)Sc1ccccn1`, under setting [1], the T/C was 182 % of control.
Turning to `CCN(CC)CCC(=O)c1ccccc1`, the T/C is, setting by setting: (dose: 75.0 mg/kg/injection, schedule: Q04DX003 (sc), vehicle: saline with Tween-80) 94 % of control; under setting [2], 100 % of control; under setting [3], 115 % of control.
Turning to `CCN(CC)c1ccc2[nH]c3c(C(N)=O)cc(=O)c(=O)c=3oc2c1`, the T/C reads like this: under setting [2], 88 % of control; under setting [3], 84 % of control; (dose: 1200.0 mg/kg/injection, schedule: Q04DX003 (sc), vehicle: saline with Tween-80) 101 % of control.
With `CN(C)c1ccc(C(=C2C=CC(=[N+](C)C)C=C2)c2ccc(N(C)C)cc2)cc1` (tested in a mixture with another compound), the T/C runs as follows: (dose: 15.0 mg/kg/injection, schedule: Q04DX003 (sc), vehicle: saline with Tween-80) 70 % of control; (dose: 30.0 mg/kg/injection, schedule: Q04DX003 (sc), vehicle: saline with Tween-80) 104 % of control; (dose: 60.0 mg/kg/injection, schedule: Q04DX003 (sc), vehicle: saline with Tween-80) 97 % of control; (dose: 120.0 mg/kg/injection, schedule: Q04DX003 (sc), vehicle: saline with Tween-80) 82 % of control.
Regarding `COC1C(C)OC(OC2CC(C)(O)Cc3cc4c(c(O)c32)C(=O)c2c(O)cc3c(c2C4=O)OC2OC3(C)C(O)C(N(C)C)C2O)C(OC)C1(C)OC` (configuration not stated), the T/C is 82 % of control (dose: 10.0 mg/kg/injection, schedule: Q04DX003 (sc), vehicle: Klucel (hydroxypropylcellulose) (HPC)); 94 % of control (dose: 20.0 mg/kg/injection, schedule: Q04DX003 (sc), vehicle: Klucel (hydroxypropylcellulose) (HPC)); 84 % of control (dose: 40.0 mg/kg/injection, schedule: Q04DX003 (sc), vehicle: Klucel (hydroxypropylcellulose) (HPC)); 76 % of control (dose: 80.0 mg/kg/injection, schedule: Q04DX003 (sc), vehicle: Klucel (hydroxypropylcellulose) (HPC)).
As for `O=NN(CCF)C(=O)NC1CCCCC1`, the T/C by setting is: (dose: 3.12 mg/kg/injection, schedule: Q04DX003 (sc), vehicle: Klucel (hydroxypropylcellulose) (HPC)) 119 % of control; (dose: 6.25 mg/kg/injection, schedule: Q04DX003 (sc), vehicle: Klucel (hydroxypropylcellulose) (HPC)) 88 % of control; (dose: 12.5 mg/kg/injection, schedule: Q04DX003 (sc), vehicle: Klucel (hydroxypropylcellulose) (HPC)) 91 % of control; (dose: 25.0 mg/kg/injection, schedule: Q04DX003 (sc), vehicle: Klucel (hydroxypropylcellulose) (HPC)) 92 % of control.
With `CC[As](=O)(O)CC`, the T/C reads like this: (dose: 100.0 mg/kg/injection, schedule: Q04DX003 (sc), vehicle: saline) 96 % of control; (dose: 200.0 mg/kg/injection, schedule: Q04DX003 (sc), vehicle: saline) 88 % of control.
Regarding `CCOC(=O)Nc1cc2c(c(N)n1)N=C(c1ccccc1)CN2`, the T/C runs as follows: (dose: 6.25 mg/kg/injection, schedule: Q04DX003 (sc), vehicle: saline with Tween-80) 80 % of control; (dose: 12.5 mg/kg/injection, schedule: Q04DX003 (sc), vehicle: saline with Tween-80) 83 % of control; (dose: 25.0 mg/kg/injection, schedule: Q04DX003 (sc), vehicle: saline with Tween-80) 68 % of control.
Consider `N[C@@H](Cc1c[nH]c2ccccc12)C(=O)Nc1nncs1`, for which the T/C was 69 % of control (dose: 300.0 mg/kg/injection, schedule: Q04DX003 (ip), vehicle: suspension in saline) and 50 % of control (dose: 600.0 mg/kg/injection, schedule: Q04DX003 (ip), vehicle: suspension in saline).
For `CC1(O)CC23CC(O)C4(O)C(CC(O)C4(C)C)C(C)(O)C2CCC1C3O` (configuration not stated), the T/C (dose: 0.25 mg/kg/injection, schedule: Q04DX003 (sc), vehicle: Klucel (hydroxypropylcellulose) (HPC)) was 162 % of control.
Take `C[N+](C)(C)c1ncnc2nc[nH]c12`: the T/C is 57 % of control under setting [4] and 38 % of control (dose: 100.0 mg/kg/injection, schedule: Q01DX010 (sc), vehicle: saline).
For the compound `COC1=NCN=C2SC=C(N)N=C12`, the T/C is, setting by setting: (dose: 37.5 mg/kg/injection, schedule: Q04DX003 (sc), vehicle: suspension in saline) 50 % of control; (dose: 75.0 mg/kg/injection, schedule: Q04DX003 (sc), vehicle: suspension in saline) 30 % of control; (dose: 150.0 mg/kg/injection, schedule: Q04DX003 (sc), vehicle: suspension in saline) 43 % of control.
`CN(C)c1ccc2c(NCCCCCCNc3ccnc4cc(N(C)C)ccc34)ccnc2c1`: the T/C was 72 % of control (dose: 37.5 mg/kg/injection, schedule: Q04DX003 (sc), vehicle: distilled water + Tween-80 + alcohol); 63 % of control and 64 % of control (dose: 75.0 mg/kg/injection, schedule: Q04DX003 (sc), vehicle: distilled water + Tween-80 + alcohol); 34 % of control and 54 % of control (dose: 600.0 mg/kg/injection, schedule: Q04DX003 (sc), vehicle: distilled water + Tween-80 + alcohol).
`Cc1c2oc3c(C)ccc(C(=O)N[C@@H]4C(=O)N[C@H](C(C)C)C(=O)N5CCC[C@H]5C(=O)N(C)CC(=O)N(C)[C@@H](C(C)C)C(=O)O[C@H]4C)c3nc-2c(C(=O)N[C@@H]2C(=O)N[C@H](C(C)C)C(=O)N3CCC[C@H]3C(=O)N(C)CC(=O)N(C)[C@@H](C(C)C)C(=O)O[C@H]2C)c(N)c1=O` (I: [aThr][dV]P[Sar][NMeV] / II: [aThr][dV]P[Sar][NMeV]; ester I:1-I:C, II:1-II:C; linker I:N-II:N via Actinocin(9to1)): the T/C was 34 % of control (dose: 0.25 mg/kg/injection, schedule: Q04DX003 (sc), vehicle: saline); 11 % of control (dose: 0.5 mg/kg/injection, schedule: Q04DX003 (sc), vehicle: saline); -46 % of control (dose: 1.0 mg/kg/injection, schedule: Q04DX003 (sc), vehicle: saline); 76 % of control (dose: 50.0 micrograms/kg/injection, schedule: Q01DX010 (sc), vehicle: saline); 23 % of control and 28 % of control and 33 % of control (dose: 100.0 micrograms/kg/injection, schedule: Q01DX010 (sc), vehicle: saline); 1 % of control and 18 % of control (dose: 200.0 micrograms/kg/injection, schedule: Q01DX010 (sc), vehicle: saline).
On to `COc1cccc2c1C(=O)c1c(O)c3c(c(O)c1C2=O)CC(O)(C(=O)CO)CC3OC1CC(N)C(O)C(C)O1` (configuration not stated), for which the T/C is, setting by setting: (dose: 12.0 mg/kg/injection, schedule: Q01DX010 (sc), vehicle: saline) 90 % of control; (dose: 24.0 mg/kg/injection, schedule: Q01DX010 (sc), vehicle: saline) 80 % of control; under setting [1], 78 % of control; (dose: 37.5 mg/kg/injection, schedule: Q01DX010 (sc), vehicle: water) 281 % of control; (dose: 48.0 mg/kg/injection, schedule: Q01DX010 (sc), vehicle: saline) 9 % of control; under setting [4], 22 % of control. Also, the T/C is 229 % of control (dose: 75.0 mg/kg/injection, schedule: Q01DX010 (sc), vehicle: water); 4 % of control (dose: 96.0 mg/kg/injection, schedule: Q01DX010 (sc), vehicle: saline); 233 % of control (dose: 150.0 mg/kg/injection, schedule: Q01DX010 (sc), vehicle: water); 81 % of control (dose: 300.0 mg/kg/injection, schedule: Q01DX010 (sc), vehicle: water).
Turning to `c1ccc2c(c1)nnn1c3cnccc3nc21`, the T/C reads like this: (dose: 12.5 mg/kg/injection, schedule: Q01DX010 (sc), vehicle: saline with Tween-80) 36 % of control; (dose: 25.0 mg/kg/injection, schedule: Q01DX010 (sc), vehicle: saline with Tween-80) 86 % of control; (dose: 50.0 mg/kg/injection, schedule: Q01DX010 (sc), vehicle: saline with Tween-80) 63 % of control.

These data come from PubChem BioAssay AID296 (DTP/NCI, 2004).
